This test relates to normal rats. In words: Cardiorenal actions of bolus ANP, CNP, VNP in anesthetized normal rats. Format: in vivo, rat.
Where [1] appears, read: normal rats, Recovery (after 30 minute washout).

From patent US6818619B2, “Chimeric natriuretic peptides” (Mayo Foundation for Medical Education and Research, priority 1999, dated 2004) come the findings set out here.

“And” between values parts separate entries of the source, which are not always exact repeats. Equal entries are not always repeated.

Consider `CC[C@H](C)[C@@H]1NC(=O)[C@H](CCCNC(=N)N)NC(=O)[C@H](CC(=O)O)NC(=O)[C@H](CCSC)NC(=O)[C@H](CCCNC(=N)N)NC(=O)CNC(=O)CNC(=O)[C@H](Cc2ccccc2)NC(=O)[C@@H](NC(=O)[C@H](CO)NC(=O)[C@H](CO)NC(=O)[C@H](CCCNC(=N)N)NC(=O)[C@H](CCCNC(=N)N)NC(=O)[C@H](CC(C)C)NC(=O)[C@@H](N)CO)CSSC[C@@H](C(=O)N[C@@H](CC(N)=O)C(=O)N[C@@H](CO)C(=O)N[C@@H](Cc2ccccc2)C(=O)N[C@@H](CCCNC(=N)N)C(=O)N[C@@H](Cc2ccc(O)cc2)C(=O)O)NC(=O)CNC(=O)[C@H](CC(C)C)NC(=O)CNC(=O)[C@H](CO)NC(=O)[C@H](CCC(N)=O)NC(=O)[C@H](C)NC(=O)CNC1=O` [ANP, Atrial natriuretic peptide], for which, under “normal rats, 5 μg/kg bolus”, the HR heart rate is 353 ± 14 beats/minute, the “MAP mean arterial pressure” value came out at 97 ± 12 mmHg, the “RAP right atrial pressure” value was −2.3 ± 0.8 mmHg and the “UKV urine potassium excretion” value stood at 10.3 ± 3.5 µmol/min. Besides, for the setting “normal rats, 5 μg/kg bolus”, the “UNaV urine sodium excretion” value was 13.2 ± 3.5 µmol/min, the UV urine volume was 79 ± 10 µL/min and the “UcGMPV urine cGMP volume” value came out at 605 ± 151 pmol/min. For the setting “normal rats, 50 μg/kg bolus”, the HR heart rate came to 355 ± 19 beats/minute, the “MAP mean arterial pressure” value was 69 ± 7*+ mmHg, the “RAP right atrial pressure” value is listed as −3.8 ± 0.8*+ mmHg and the “UKV urine potassium excretion” value is 24.4 ± 8.7 µmol/min. In addition, for the setting “normal rats, 50 μg/kg bolus”, the “UNaV urine sodium excretion” value is given as 68.2 ± 15.7*+ μmol/minute, the UV urine volume is 341 ± 41*+ μl/minute and the “UcGMPV urine cGMP volume” value was 2580 ± 505*+ pmol/minute. Under setting [1], the HR heart rate was 368 ± 23 beats/minute, the “MAP mean arterial pressure” value is reported as 92 ± 11*¶ mmHg, the “PcGMP plasma cGMP” value is 3.2 − 63¶ pmol/ml and the “RAP right atrial pressure” value is −0.8 ± 0.9¶ mmHg. Moreover, under setting [1], the “UKV urine potassium excretion” value came to 2.4 ± 0.1 µmol/min, the “UNaV urine sodium excretion” value is given as 8.9 ± 3.5¶ μmol/minute, the UV urine volume is given as 48 ± 14¶ μl/minute and the “UcGMPV urine cGMP volume” value is on record as 105 ± 63¶ pmol/minute.

With “C-type natriuretic peptide (GLSKGCFGLKLDRIGSMSGLGC) [CNP]”, under “rat, in vivo”, the HR heart rate is 363 ± 19 beats/minute and 365 ± 19 beats/minute and 363 ± 16 beats/minute; the “MAP mean arterial pressure” value was 100 ± 12 mmHg and 87 ± 9*+ mmHg and 104 ± 11*¶ mmHg.

Turning to vasonatrin peptide [VNP], under “rat, in vivo”, the HR heart rate is 393 ± 20 beats/minute and 408 ± 25 beats/minute and 390 ± 20 beats/minute; the “MAP mean arterial pressure” value was 93 ± 15 mmHg and 79 ± 15*+ mmHg and 93 ± 15*¶ mmHg.
